Laboratory results published in patent publication US5643907A, “Pharmaceutical composition containing 5-morpholinomethyl-3-(4-chlorobenzylideneamine)-2-oxazolidinone and its use for the treatment of CNS disorders” (priority 1993, dated 1997).
Where a name gives a salt, the structure may show the parent alone.

What was measured:
[1] = system: rats behaviour; experiment: Influence on the rats behaviour in "despair test" (Porsolt), immobility period; format: in vivo, rat; details: for The immobility period, % of control: twice
Method: 1) The influence on the rats behaviour in "despair test".
The rats were placed separately in upright, metallic cylindrical containers, 60 cm high and 18 cm in diameter, containing 15 centimeters of water, at a temperature of 25° C. […] After 24 hours the rats were dived in water again and for 5 minutes the complete immobility period was measured. The examined preparation (containing 5-morpholinomethyl-3-(4-chlorobenzylideneamine)-2-oxazolidinone hydrochloride) or imipramine (IMI) was administered per os twice: at 24 hours and one hour before the beginning of the observation.

[2] = system: reserpine pretreated mice; experiment: Intensification of L-Dopa effects in reserpine pretreated mice; format: in vivo, mouse
Method: 2) The intensification of L-Dopa effects in reserpine pretreated mice.
The examined preparation was administered to mice p.o. in the dosages of 40 and 200 mg/kg 17 hours after reserpine in the dosage of 2,5 mg/kg had been administered intraperitoneally. After one hour L-dopa was injected in the dosage of 300 mg/kg. The intensification of L-dopa anti-reserpine action was evaluated according to the following parameters of the animals behaviour: mobility, irritability, ptosis and body temperature. According to the same empirical system IMI was examined in the dosages of 8 and 40 mg/kg.

[3] = system: mice premedicated with pargyline; experiment: Intensification of L-dopa effects in mice premedicated with pargyline; format: in vivo, mouse; details: for Reaction of mice according to score: L-dopa 200 mg/kg i.p. after pargyline, control 1-2
Method: 3) The intensification of L-dopa effects in mice premedicated with pargyline.
Three hours after the oral administration of pargyline in the dosage of 40 mg/kg, there was applied orally either the examined preparation or IMI, followed after one hour by L-dopa administered intraperitoneally in the dosage of 200 mg/kg. The behaviour of the mice was evaluated according to the following 5-level score:
1 - piloerection, Straub's tail, exophtalmos of eyes, minute salivating, irritability.
2 - as above + translocations, single jumps.
3 - as above + bigger incitement of mobility, frequent jumps, climbing, single squeaks.
4 - as above + great incitement of mobility, aggresion, fights.
5 - as above + maximum incitement of mobility and aggresion

[4] = system: beta-adrenergic receptor; experiment: Influence of chronic administration on concentration of beta-adrenergic cerebral receptors in vivo (3H-dihydroalprenolol bonding to cerebral cortex membranes); parameters: species or system rat; details: chronic
Method: Rats were administered the examined preparation in the form of intraperitoneally injection and the dosage of 200 mg/kg twice daily for six weeks. In the same empirical system IMI was examined in the dosage of 10 mg/kg. The animals were killed 24 hours after the last injection and their cerebral cortexes were skeletonized.
The population of the beta-adrenergic receptor was characterised by the examination of the parameters of the ^3 H-dihydroalprenolol (^3 H-DHA) bonding to the membranes (fractiom P2) of the cerebral cortex. The tissue was homogenised in 20 volumes of the 50 mM buffer TRIS-HCl, pH 7,6 in the Polytron disintegrator (position 4,155) and centrifuged at 1000 g for 10 minutes. The supernatant was decanted and again centrifuged at 25000 for 20 minutes. The operations were conducted in the temperature of 0°-4° C. The precipitate, after the second centrifugation, decanting and removing the supernatant, was kept in the temperature of -18° C. until the time of incubation (no longer than 48 hours). The final fraction P2 was obtained by the subsequent process of the sediment homogenisation in such a volume of 50 mM buffer TRIS-HCl, pH 7,6, that the final concentration of protein amounted to 1,5 mg/ml.
The incubation mixture, containing 450 μl of the fraction P2 suspension, 50 μl of the ^3 H-DHA solution (6 different solutions; the final concentrations in the mixture […]) and 50 μl of buffer or propranolol solution (the final concentration in the sample […]) was incubated for 30 minutes in the temperature of 25° C. The incubation was finished by filtrating the suspension through filters made of glass fibres. The filters were twice rinsed with 5 ml of cold (0° C.) buffer TRIS-HCl, pH 7,6, and placed in scintillation minivessels, to which Bray's liquid was added. The radioactivity was measured by the Packard scintillation counter, model B329 with the efficiency of 36-37%.
The specific bonding was defined as the radioactivity difference between the samples incubated in the absence of propranolol (complete bonding) and in the presence of 10 μM of propranolol (blank). The data from the counter […] were recalculated individually into the decay frequence […], calculating it from the individual efficiency of each sample, received from the relation of impulses in the canals A and B. Bmax value and the constant of dissociation KD was calculated from the Scatchard diagrams, which were rectilinear.

[5] = system: uptake of noradrenaline; experiment: Effect on the uptake of noradrenaline in vivo (protection from 6-OHDA); parameters: species or system rat
Method: The point of reference for measuring the inhibiting effect on the uptake of noradrenaline was the protection from the effect of 6-hydroxydopamine (6-OHDA), which was administered intraventricularly. Rats were applied intraventricularly 250 μg of 6-OHDA in the volume of 20 μl of 0,9% solution of […] and 0,1% solution of ascorbic acid. […] The animals were decapitated 7 days after and the level of noradrenaline in the whole brain was measured by the division on the Sephadex G-10 column and fluorimetric assay following oxidation.

[6] = system: process of learning and memorising; experiment: Effect on the process of learning and memorising (conditioned jump on a bar); format: in vivo, rat
[7] = system: mice in the conditions of hypoxia; experiment: Effect on the time of survival in the conditions of hypoxia; format: in vivo, mouse; details: for The number of mice surviving in the conditions of hypoxia: surviving/complete number
Method: The examined preparation was applied i.o. in the dosages 5, 10, 50, 75, 100 mg/kg 60 minutes before the beginning of the experiment. The experiment lasted until 0-3 animals survived in the control group. Subsequently oxygen was let in and finally normal air. The number of animals which survived in the control group was compared to the number of animals in the group administered the examined preparation. The number of surviving mice is presented in relation to the complete number of examined mice.

[8] = system: uptake of serotonin; details: 200 mg/kg before p-CA; control 353 ± 117, 7
[9] = system: uptake of serotonin; experiment: Effect on the uptake of serotonin in vivo (protection from p-chloramphetamine)
[10] = mice premedicated with pargyline

O=C1OC(CN2CCOCC2)CN1N=Cc1ccc(Cl)cc1 (centres unmarked) [Examined preparation, 5-morpholinomethyl-3-(4-chlorobenzylideneamine)-2-oxazolidinone hydrochloride]
The immobility period, % of control ([1]; 40 mg/kg p.o.): 89%
effect on immobility compared with IMI (20 mg/kg) ([1]; 200 mg/kg): equals approximately to the effect of IMI (20 mg/kg)
shortened the rats' immobility period in relation to the control group ([1]; 200 mg/kg): 18%
The immobility period, % of control ([1]; 200 mg/kg p.o.): 82%
irritability and incitement, second phase ([2]; 200 mg/kg, after 90 minutes): there appeared irritability and big incitement, which lasted over an hour
body posture (righting) reflex ([2]; 200 mg/kg, first hour after the application): loss of body posture (righting) reflex
effectiveness of smaller versus bigger dosage ([2]; 40 vs 200 mg/kg): A smaller dosage proved to be more effective than a bigger one
effect on ptosis, hypothermy, mobility and irritability ([2]; reserpine pretreated mice + L-dopa): reduced ptosis and hypothermy and raised the animals' mobility and irritability
intensification of the behavioural effects of L-dopa ([2]; reserpine pretreated mice, compared with IMI): intensified the behavioural effects of L-dopa action in reserpine pretreated mice in the same way as IMI
Reaction of mice according to score ([3]; 10 mg/kg p.o.): 5
Reaction of mice according to score ([3]; 20 mg/kg p.o.): 5
Reaction of mice according to score ([3]; 40 mg/kg p.o.): 5
Reaction of mice according to score ([3]; 200 mg/kg p.o.): 3-4
mobility and emotion incitement ([3]; after the dosages of 10, 20 and 40 mg/kg): strongest mobility and emotion incitement
effectiveness compared with IMI [3, 10]: stronger effectiveness than IMI
intensification of L-dopa effects [3, 10]: very strong intensification of L-dopa effects
Bmax, % of control ([4]; 40 mg/kg daily dosage): 67%
KD, % of control ([4]; 40 mg/kg daily dosage): 63%
Bmax, % of control ([4]; 200 mg/kg daily dosage): 72%
KD, % of control ([4]; 200 mg/kg daily dosage): 68%
effect on the concentration of receptors, compared with imipramine ([4]; both dosages): did not differ considerably
constant of dissociation value KD / beta-adrenergic receptor affinity ([4]; both dosages, as distinct from imipramine): statistically considerable decline of the constant of dissociation value KD and consequently the increase of the beta-adrenergic receptor affinity
noradrenaline, % in relation to the group after chemosympathectomy ([5]; 40 (mg/kg) before 6-OHDA): 92%
noradrenaline, % in relation to the group after chemosympathectomy ([5]; 200 (mg/kg) before 6-OHDA): 155%
Concentration of noradrenaline in the brain X ± SEM ([5]; 200 (mg/kg) before 6-OHDA, control 205 ± 10, 5): 148 ± 24, 9 mg/kg tissue
inhibiting the uptake of noradrenaline ([5]; high dosages): proves effective in inhibiting the uptake of noradrenaline
inhibition of the effect of 6-OHDA compared with IMI ([5]; higher dosage): inhibits it almost as effectively as IMI
prevention of the effect of 6-OHDA ([5]; low dosage): does not prevent the effect of 6-OHDA completely
process of learning ([6]; 5 mg/kg i.p. everyday): accelerates the process of learning
effect on learning compared with piracetam and pyritinol ([6]; 5 mg/kg i.p. vs piracetam 100 mg/kg, pyritinol 100 mg/kg): weaker than the effect of piracetam, but stronger than the effect of pyritinol
The number of mice surviving in the conditions of hypoxia ([7]; 5 mg/kg, control 7/40, p n.d.): 5/40
The number of mice surviving in the conditions of hypoxia ([7]; 10 mg/kg, control 5/40, p n.d.): 6/40
The number of mice surviving in the conditions of hypoxia ([7]; 50 mg/kg, control 9/60, p <0, 01): 23/60
The number of mice surviving in the conditions of hypoxia ([7]; 75 mg/kg, control 9/60, p <0, 01): 28/60
The number of mice surviving in the conditions of hypoxia ([7]; 100 mg/kg, controls: Examined 9/60 (p <0, 01), Piracetam 7/40 (n.d.), Pyritinol 8/60 (p <0, 01)): 47/60
time of mice survival in the conditions of hypoxia ([7]; in comparison to piracetam and pyritinol): prolongs the time of mice survival in the conditions of hypoxia
Concentration of serotonin in the brain X ± SEM [8]: 367 ± 30, 1 mg/kg tissue
serotonin, % in relation to the group after p-chloramphetamine ([9]; 40 mg/kg before p-CA): 107%
serotonin, % in relation to the group after p-chloramphetamine ([9]; 200 mg/kg before p-CA): 172%
prevention of the p-chloramphetamine effect ([9]; high dosage): prevented the p-chloramphetamine effect completely
effect on the washing-out action of p-chloramphetamine ([9]; low dosage): did not produce any effects on the washing-out action of p-chloramphetamine
